The text below walks through data of patent EP4285905A1, “CABERGOLINE OR A PHARMACEUTICALLY ACCEPTABLE SALT OR SOLVATE THEREOF, FOR USE IN PREVENTION OR DELAY OF POST-PREGNANCY BREAST CANCER IN A FEMALE MAMMAL” (Consejo Superior de Investigaciones Cientificas, priority 2022, dated 2023).

In assay [1] the test system is Brca1/P53-deficient mice. The experiment in a line: Caspase 3 immunohistochemistry as a marker of apoptosis in the mammary gland. The format is in vivo. From the text: Subsequently, the same groups of animals indicated were generated and samples were collected from the mammary glands at 1, 3, 7, 30 and 60 days post-gestation (in non-lactating multiparous) or post-weaning (in lactating multiparous, with and without treatment with cabergoline) (N = 5 mice per group at each time studied).
The left inguinal breast of each mouse was embedded in paraffin for further study. Once removed from the animals, the breasts were fixed in 4% paraformaldehyde (Scharlau FO) for 24 hours and, subsequently, they were kept in 70% ethanol at a temperature of 4 °C, until they were processed in the Comparative Molecular Pathology Service of the Salamanca Cancer Research Center. Tissues were dehydrated by three 1-hour incubations in increasing concentrations of ethanol (60%, 80%, and 100%). Three other 1-hour incubations were carried out in xylol, to replace the dehydrating agent with a substance miscible in paraffin. Finally, three other incubations of 1 hour and 20 minutes were carried out with liquid paraffin, after which blocks were made with a mould suitable for the size of the tissue in a paraffin embedding station. When the paraffin blocks were completely cold, 2-µm-thick sections were made using a rotation microtome (Leica RM2255). […]
To quantify cells positive for Ki-67 or caspase 3, the Leica Application Suite (LAS) V3.7 program was used. […]

Assay [2] deals with Brca1/P53-deficient mice. The experiment in a line: Indirect estimation of recombinant P53 cells by qPCR of the WT allele (longitudinal cohort). The class given is in vivo. The settings on record: tumour-free mammary glands. On the procedure: In order to obtain a suspension enriched in mouse mammary epithelial cells, from which we can obtain both RNA and proteins and also maintain acceptable viability, the protocol for obtaining mouse mammary organoids was carried out. Once the mammary glands were removed after performing the necropsy of the mouse, they were mechanically disintegrated by cutting with two scalpels. Subsequently, they were incubated in a volume of 10 mL of supplemented medium (DMEM/F12 (50%/50%), 5% fetal bovine serum, 1% penicillin/streptomycin) plus 1.25 mL of collagenase, and 1 mL of trypsin. This enzymatic digestion was carried out for 30 minutes at 37 °C in orbital agitation at 100 revolutions per minute (rpm) (= 1.666 s^-1). […]
DNA was extracted from frozen organoids obtained from mammary glands at 30 and 60 days of involution, and from tumour-free mammary glands of mice that developed breast cancer over time. The quantity and quality of DNA were quantified using a spectrophotometer (Nanodrop). Subsequently, this DNA was used to determine the recombination frequency of the P53 gene in the breasts of the different groups by Quantitative Polymerase Chain Reaction (qPCR). […]
For each sample, qPCR reactions against P53 and Tfrc were performed in parallel and in triplicate. […] The qPCR reactions and the reading of the signal were performed in the Mastercycler epgradient S Realplex2 thermal cycler from Eppendor. […]

Structures are written as SMILES.

For `C=CCN1C[C@H](C(=O)N(CCCN(C)C)C(=O)NCC)C[C@@H]2c3cccc4[nH]cc(c34)C[C@H]21` [cabergoline, 1-[(6-allylergolin-8ß-yl)-carbonyl]-1-[3-(dimethylamino)propyl]-3-ethylurea], the “apoptosis (percentage of apoptotic cells positive against caspase 3)” value in assay [1] (3 days of post-lactational involution, vs untreated multiparous mice, P < 0.0001) is given as “significant increase in apoptosis”. Moreover, in assay [1] (30 days post-weaning), the “basal apoptosis of the epithelium (caspase 3)” value was “greater basal apoptosis of the epithelium”. In addition, the “WT allele (proportion of WT cells) over time” value in assay [2] is on record as “increase in WT cells was observed over time”.
